These results are taken from patent US20100168079A1 (priority 2008, published 2010).

pIC50: −log10 of the molar value.

The test concerns the target T1, human S1P1 receptors (Homo sapiens, UniProt P21453).
T1 construct: myc (N); expressed in transfected cells; host or cells: HeLa (human cervix carcinoma, ATCC CCL2), HeLa-S1P1/Gα16 cell clone 1
In words: Human S1P1 Receptor Calcium FLIPR Antagonist Assay (HeLa Gα16 S1P1). In kind it is cell-based. The note with it: relative antagonism of Ca2+ signal evoked by probing agonist GNF-AC-1 at EC80; HeLa-S1P1/Gα16 cells. As to the method:
Human S1P1 Receptor Calcium FLIPR Antagonist Assay
The cells are plated in 384 well black plates (10′000 cells per well). […] After washing, the cells are transferred to the FLIPR. The test compounds are added at different concentrations […]) in HBSS in the presence of 0.1% BSA and changes in fluorescence are recorded (indication of agonism). The probing agonist is added 20-30 minutes afterwards to the wells at a concentration giving 80% of the maximal activity (EC80). After each addition, time points are collected as follows: 20 time points (2 seconds) before the addition of the agonist (Fmin) and 60 time points (1 or 2 seconds) after the addition of the probing agonist. This allows the determination of the maximal fluorescence (Fmax). The ratio (Fmax-Fmin)/Fmin is plotted against the log of the concentration of the test compounds and the IC50 (relative antagonism) is calculated using the XLfit-4 software. […] A concentration-response curve of the probing agonist is determined on each plate in parallel.

T1 sequence (P21453 whole entry): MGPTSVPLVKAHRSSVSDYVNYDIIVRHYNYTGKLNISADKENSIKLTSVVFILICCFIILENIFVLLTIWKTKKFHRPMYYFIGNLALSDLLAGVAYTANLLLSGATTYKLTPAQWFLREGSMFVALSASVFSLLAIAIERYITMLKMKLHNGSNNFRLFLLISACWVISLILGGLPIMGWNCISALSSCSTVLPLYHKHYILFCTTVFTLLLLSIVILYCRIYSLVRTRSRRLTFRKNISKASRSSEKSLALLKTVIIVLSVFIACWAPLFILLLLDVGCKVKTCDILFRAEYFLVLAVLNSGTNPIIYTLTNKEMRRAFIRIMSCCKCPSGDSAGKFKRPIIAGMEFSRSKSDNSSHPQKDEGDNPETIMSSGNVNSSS

On to `COc1ccc(C(C)Nc2cccc(-c3cc(C)c(C(=O)N[C@@H](C)C(=O)O)c(C)c3)c2)cc1Cl` (stereo partly drawn) [Example 1, (S)-2-({3′-[1-(3-Chloro-4-methoxy-phenyl)-ethylamino]-3,5-dimethyl-biphenyl-4-carbonyl}-amino)-propionic acid], for which the pIC50 (in general, the IC50 on a negative log10 scale, so that one unit is a factor of ten) was 8.70.
To `CCC(Nc1cccc(-c2cc(C)c(C(=O)N[C@@H](C)C(=O)O)c(C)c2)c1)c1ccc(Cl)c(C)c1` (stereo partly drawn) [Example 5, (S)-2-({3′-[1-(4-Chloro-3-methyl-phenyl)-propylamino]-3,5-dimethyl-biphenyl-4-carbonyl}-amino)-propionic acid] belongs 8.70.
Regarding `Cc1cc(-c2cccc(NC(C)c3ccc(Cl)c(F)c3)c2)cc(C)c1C(=O)N[C@@H](C)C(=O)O` (stereo partly drawn) [Example 9, (S)-2-({3′-[1-(4-Chloro-3-fluoro-phenyl)-ethylamino]-3,5-dimethyl-biphenyl-4-carbonyl}-amino)-propionic acid], the pIC50 was 8.52.
To `Cc1cc(-c2cccc(NC(C)c3ccc(Cl)c(Cl)c3)c2)cc(C)c1C(=O)N[C@@H](C)C(=O)O` (some centres unmarked) [Example 10] belongs 8.70; to `Cc1ccc(C(C)Nc2cccc(-c3cc(C)c(C(=O)N[C@@H](C)C(=O)O)c(C)c3)c2)cc1C` (stereo partly drawn) [Example 11, (S)-2-({3′-[1-(3,4-Dimethylphenyl)-ethylamino]-3,5-dimethyl-biphenyl-4-carbonyl}-amino)-propionic acid], 8.40.
`Cc1cc(C(C)Nc2cccc(-c3cc(C)c(C(=O)N[C@@H](C)C(=O)O)c(C)c3)c2)c(C)cc1Cl` (stereo partly drawn) [Example 13, (S)-2-({3′-[1-(4-Chloro-2,5-dimethyl-phenyl)-ethylamino]-3,5-dimethyl-biphenyl-4-carbonyl}-amino)-propionic acid]: the pIC50 is 8.30.
The result for `Cc1cc(-c2cccc(NC(C)c3ccc(Cl)c(C(F)(F)F)c3)c2)cc(C)c1C(=O)N[C@@H](C)C(=O)O` (some centres unmarked) [Example 14] reads 8.40; that for `COc1cc(C(C)Nc2cccc(-c3cc(C)c(C(=O)N[C@@H](C)C(=O)O)c(C)c3)c2)ccc1F` (stereo partly drawn) [Example 15, (S)-2-({3′-[1-(4-Fluoro-3-methoxy-phenyl)-ethylamino]-3,5-dimethyl-biphenyl-4-carbonyl}-amino)-propionic acid], 8.70.
To `Cc1cc(C(C)Nc2cccc(-c3cc(C)c(C(=O)N[C@@H](C)C(=O)O)c(C)c3)c2)c(F)cc1Cl` (stereo partly drawn) [Example 16, (S)-2-({3′-[1-(4-Chloro-2-fluoro-5-methyl-phenyl)-ethylamino]-3,5-dimethyl-biphenyl-4-carbonyl}-amino)-propionic acid] belongs 8.70; to `Cc1cc(-c2cccc(NC(C)c3ccc(F)c(OC(F)(F)F)c3)c2)cc(C)c1C(=O)N[C@@H](C)C(=O)O` (stereo partly drawn) [Example 17, (S)-2-({3′-[1-(4-Fluoro-3-trifluoromethoxy-phenyl)-ethylamino]-3,5-dimethyl-biphenyl-4-carbonyl}-amino)-propionic acid], 8.30; to `COc1ccc(C(C)Nc2cccc(-c3cc(C)c(C(=O)N[C@@H](C)C(=O)O)c(C)c3)c2)cc1F` (stereo partly drawn) [Example 18, (S)-2-({3′-[1-(3-Fluoro-4-methoxy-phenyl)-ethylamino]-3,5-dimethyl-biphenyl-4-carbonyl}-amino)-propionic acid], 8.40.
To `Cc1cc(F)cc(C(C)Nc2cccc(-c3cc(C)c(C(=O)N[C@@H](C)C(=O)O)c(C)c3)c2)c1` (stereo partly drawn) [Example 19, (S)-2-({3′-[1-(3-Fluoro-5-methyl-phenyl)-ethylamino]-3,5-dimethyl-biphenyl-4-carbonyl}-amino)-propionic acid] belongs 8.70; to `Cc1cc(C(C)Nc2cccc(-c3cc(C)c(C(=O)N[C@@H](CO)C(=O)O)c(C)c3)c2)ccc1Cl` (stereo partly drawn) [Example 21, (S)-2-({3′-[1-(4-Chloro-3-methyl-phenyl)-ethylamino]-3,5-dimethyl-biphenyl-4-carbonyl}-amino)-3-hydroxy-propionic acid], 8.70; to `CCC(Nc1cccc(-c2cc(C)c(C(=O)NC3(C(=O)O)CC3)c(C)c2)c1)c1ccc(Cl)c(C)c1` (centres unmarked) [Example 27, 1-({3′-[1-(4-Chloro-3-methyl-phenyl)-propylamino]-3,5-dimethyl-biphenyl-4-carbonyl}-amino)-cyclopropanecarboxylic acid], 8.70.
With `Cc1cc(C)cc(C(C)Nc2cccc(-c3cc(C)c(C(=O)N[C@@H](C)C(=O)O)c(C)c3)c2)c1` (stereo partly drawn) [Example 28, (S)-2-({3′-[1-(3,5-Dimethyl-phenyl)-ethylamino]-3,5-dimethyl-biphenyl-4-carbonyl}-amino)-propionic acid], the pIC50 was 8.52.
The result for `Cc1cc(C(C)Nc2cccc(-c3cc(C)c(C(=O)N[C@@H](C)C(=O)O)c(C)c3)c2)cc(C)c1Cl` (stereo partly drawn) [Example 29, (S)-2-({3′-[1-(4-Chloro-3,5-dimethyl-phenyl)-ethylamino]-3,5-dimethyl-biphenyl-4-carbonyl}-amino)-propionic acid] reads 8.70; that for `COc1ccc(C(C)Nc2cccc(-c3cc(C)c(C(=O)N[C@@H](C)C(=O)O)c(C)c3)c2)cc1C` (stereo partly drawn) [Example 30, (S)-2-({3′-[1-(4-Methoxy-3-methyl-phenyl)-ethylamino]-3,5-dimethyl-biphenyl-4-carbonyl}-amino)-propionic acid], 8.70.
In the case of `COc1ccc(C(C)Nc2cccc(-c3cc(C)c(C(=O)N[C@@H](C)C(=O)O)c(C)c3)c2)cc1C(F)(F)F` (stereo partly drawn) [Example 33, (S)-2-({3′-[1-(4-Methoxy-3-trifluoromethyl-phenyl)-ethylamino]-3,5-dimethyl-biphenyl-4-carbonyl}-amino)-propionic acid], the pIC50 is 9.00.
Consider `COc1c(F)cc(C(C)Nc2cccc(-c3cc(C)c(C(=O)N[C@@H](C)C(=O)O)c(C)c3)c2)cc1F` (stereo partly drawn) [Example 34, (S)-2-({3′-[1-(3,5-Difluoro-4-methoxy-phenyl)-ethylamino]-3,5-dimethyl-biphenyl-4-carbonyl}-amino)-propionic acid], for which the negative-log IC50 (pIC50) is 8.52.
To `COc1ccc(C(C)Nc2cccc(-c3cc(C)c(C(=O)N[C@@H](C)C(=O)O)c(C)c3)c2)c(F)c1` (stereo partly drawn) [Example 35, (S)-2-({3′-[1-(2-Fluoro-4-methoxy-phenyl)-ethylamino]-3,5-dimethyl-biphenyl-4-carbonyl}-amino)-propionic acid] belongs 8.10.
As to `COc1c(F)cc(C(C)Nc2cccc(-c3cc(C)c(C(=O)N[C@@H](C)C(=O)O)c(C)c3)c2)cc1Cl` (stereo partly drawn) [Example 36, (S)-2-({3′-[(3-Chloro-5-fluoro-4-methoxy-phenyl)-ethylamino]-3,5-dimethyl-biphenyl-4-carbonyl}-amino)-propionic acid], the negative-log IC50 (pIC50) is 8.70.
To `COc1c(C)cc(C(C)Nc2cccc(-c3cc(C)c(C(=O)N[C@@H](C)C(=O)O)c(C)c3)c2)cc1C` (stereo partly drawn) [Example 37, (S)-2-({3′-[1-(4-Methoxy-3,5-dimethyl-phenyl)-ethylamino]-3,5-dimethyl-biphenyl-4-carbonyl}-amino)-propionic acid] belongs 8.70; to `Cc1cc([C@@H](C)Nc2cccc(-c3ccc(C(=O)N[C@@H](C)C(=O)O)c(C)c3)c2)ccc1Cl` [Example 40, (S)-2-({3′-[(R)-1-(4-Chloro-3-methyl-phenyl)-ethylamino]-3-methyl-biphenyl-4-carbonyl}-amino)-propionic acid], 8.70; to `CCc1cc(-c2cccc(NC(C)c3ccc(Cl)c(C)c3)c2)ccc1C(=O)N[C@@H](C)C(=O)O` (stereo partly drawn) [Example 42, (S)-2-({3′-[1-(4-Chloro-3-methyl-phenyl)-ethylamino]-3-ethyl-biphenyl-4-carbonyl}-amino)-propionic acid], 8.52.
To `CCc1cc(-c2cccc(NC(C)c3ccc(Cl)c(C)c3)c2)ccc1C(=O)N(C)[C@@H](C)C(=O)O` (stereo partly drawn) [Example 43, (S)-2-({3′-[1-(4-Chloro-3-methyl-phenyl)-ethylamino]-3-ethyl-biphenyl-4-carbonyl}-methyl-amino)-propionic acid] belongs 8.52; to `CCc1cc(-c2cccc(NC(C)c3cc(C)c(Cl)c(C)c3)c2)ccc1C(=O)N(C)[C@@H](C)C(=O)O` (stereo partly drawn) [Example 45, (S)-2-({3′-[1-(4-Chloro-3,5-dimethyl-phenyl)-ethylamino]-3-ethyl-biphenyl-4-carbonyl}-methyl-amino)-propionic acid], 8.30.
Turning to `Cc1cc(C(C)Nc2cccc(-c3ccc(C(=O)N[C@@H](C)C(=O)O)c(Cl)c3)c2)ccc1Cl` (stereo partly drawn) [Example 46, (S)-2-({3-Chloro-3′-[1-(4-chloro-3-methyl-phenyl)-ethylamino]-biphenyl-4-carbonyl}-amino)-propionic acid], the pIC50 was 8.70.
The result for `Cc1cc(C(C)Nc2cccc(-c3ccc(C(=O)N(C)[C@@H](C)C(=O)O)c(Cl)c3)c2)ccc1Cl` (stereo partly drawn) [Example 47, (S)-2-({3-Chloro-3′-[1-(4-chloro-3-methyl-phenyl)-ethylamino]-biphenyl-4-carbonyl}-methyl-amino)-propionic acid] reads 8.70; that for `Cc1cc(C(C)Nc2cccc(-c3ccc(C(=O)N(C)[C@@H](C)C(=O)O)c(F)c3)c2)ccc1Cl` (stereo partly drawn) [Example 49, (S)-2-({3′-[1-(4-Chloro-3-methyl-phenyl)-ethylamino]-3-fluoro-biphenyl-4-carbonyl}-methyl-amino)-propionic acid], 8.52.
